Measured values taken from patent US20220288028A1, “A THERAPEUTIC APPROACH FOR TREATING NON-INFECTIOUS OCULAR IMMUNOINFLAMMATORY DISORDERS” (The Schepens Eye Research Institute, Inc., priority 2019, published 2022).
Where no end group is shown, it is not given here.

How the values were obtained:
Foxp3^+CD4^+ Tregs = experiment: Isolated Tregs co-cultured with SP, with or without NK1R antagonist (recovered Tregs); format: cell-based, mice; settings: SP at 0.1, 1, and 10 nM in vitro; tested 0.01-10 nM
Method: FIGS. 3A and 3B show the results of the in vitro effect of SP on Treg cells. The normal functional Foxp3^+CD4^+ Tregs were isolated from naive mice and co-cultured with different doses of SP, e.g., at 0.01, 0.1, 1, and 10 nM in vitro. […] On the contrary, addition of the NK1R antagonist prevented the loss of Tregs (FIG. 3B).

[1] = tested on: bone marrow-derived dendritic cells (BMDCs); experiment: BMDC maturation (MHC II expression) in the presence of SP, flow cytometry; format: cell-based, C57BL/6 mice; settings: SP 25, 50 and 100 μg/mL for 18 hours; p=0.03 and p=0.02 for 50 and 100 μg/mL vs. vehicle
Method: Generation of Bone Marrow-Derived Dendritic Cells (BMDCs): Long bones (femur and tibia) were harvested from C57BL/6 mice and cell suspension was prepared. Cells were incubated with Red blood cell (RBC) lysis buffer (Sigma-Aldrich, St. Louis, Mo.) at 37° C. for 10 minutes. […]
Single Cell Suspension Preparation and Flow Cytometry: Submandibular and cervical draining lymph nodes (DLNs) were harvested and single cell suspensions were prepared. […] Stained cells were examined using an LSRII Flow Cytometer (BD Biosciences, Franklin Lakes, N.J., USA), and data were analyzed using commercial Summit software (Summit v4.3; Dako Colorado, Inc., Fort Collins, Colo.).
Mature APCs play a key role in the activation of THh17 cells and the autoimmune response in DED (Barabino S. et al. Prog Retin Eye Res 2012, 31:271-85; Stevenson W, Chauhan S K, Dana R: Dry eye disease: an immune-mediated ocular surface disorder. Arch Ophthalmol 2012, 130:90-100; Hamrah P, et al. Invest Ophthalmol Vis Sci 2003, 44:581-9). Given that increased SP levels in response to desiccating stress was observed, the effect of SP on maturation of APCs was next evaluated. […]

CD4^+CD25^+Foxp3^+ Tregs = experiment: Tregs co-cultured with SP with or without Spantide I: phenotype, cytokines, suppression of effector T cell proliferation; format: cell-based, C57BL/6 mice
Method: CD4^+CD25^+Foxp3^+ Tregs were isolated from draining lymph nodes (DLN) of naïve female C57BL/6 mice.
Isolated Tregs were co-cultured with SP (1 μM) with or without Spantide I (10 μM) for 48 hours. Phenotype of Tregs was evaluated by flow cytometry, and the capacity of Tregs to suppress effector T cell proliferation was investigated.

[2] = tested on: corneal epithelial wound healing; settings: topical application, diabetic mice; cited from earlier work

## SP: substance P, an 11-amino acid neuropeptide, endogenous ligand of NK1R (RPKPQQFFGLM-NH2; ends and bridges not checked; UniProt P20366 58-68, looked up)
Foxp3^+CD4^+ Tregs
  Tregs recovered after co-culture with SP: significantly reduced Tregs
[1]
  mean fluorescence intensity (MFI) of MHC II in BMDCs: significant and dose-dependent increase
CD4^+CD25^+Foxp3^+ Tregs; SP 1 μM, 48 hours, in vitro
  expression of inhibitory molecules Foxp3, CTLA4 and PD-1 by Tregs: suppresses the expression
  secretion of immunoregulatory cytokines (TGFβ and IL-10) by Tregs: significantly lower levels
CD4^+CD25^+Foxp3^+ Tregs; Tregs pre-incubated with SP
  capacity of Tregs to suppress effector T cell proliferation in vitro: lower capacity
[2]
  corneal epithelial wound healing: promotes corneal epithelial wound healing
